Experimental data from patent EP4596537A1, “NOVEL FLUORENE DERIVATIVE COMPOUND AND USE THEREOF” (JD Bioscience Inc., priority 2022, dated 2024).

What was measured:
C57BL6J mice [1] = experiment: Acute kidney ischemic reperfusion (IR) injury animal model; assay type: in vivo; conditions: 4 µg/kg and 8 µg/kg via tail vein; vs vehicle-treated IR group
Method: Vehicle and Compound 1 (4 µg/kg or 8 µg/kg) were administered to 8-week-old male C57BL6J mice via the tail vein 24 hours before, 1 hour before, and 12 hours after ischemic reperfusion (IR) surgery. The surgery was performed by blocking the artery leading to the kidney to induce ischemia for 37 minutes. The blocked artery was released, and 24 hours later, the mice were anesthetized and autopsied. Other part was used to synthesize cDNA, and a kidney damage marker, NGAL was identified by real-time PCR. And serum was separated from the blood, and creatinine, which is a kidney damage marker in the serum, was examined, and the results are shown in FIG. 3.

C57BL6J JmcSlc mice = experiment: Inflammatory bowel disease animal model (DSS-induced colitis); assay type: in vivo
Method: Colitis was induced in 8-week-old male C57BL6J JmcSlc mice by feeding 3.5% dextran sodium sulfate (DSS) ad libitum for 9 days, and then replacing the same with normal drinking water. The vehicle and Compound 1 (0.5 mg/kg or 1 mg/kg) were orally administered to the experimental animal model prepared as described above daily from 2 days before DSS drinking until the end of drinking. In order to determine the degree of colonic inflammation, the degree of longitudinal contraction of the isolated colon was measured, and the histological scores were confirmed through H&E staining, which is shown in FIG. 6. Furthermore, total RNA was isolated from the isolated colon, cDNA was synthesized, and the expression levels of representative cytokines (IFNγ, IL-1β, IL-4, IL-6, IL-10, IL-12β, IL-17a, and TNFα) were measured and compared using qPCR, and the results are shown in FIG. 7.

C57BL6J mice [2] = experiment: LPS-induced sepsis animal model, viability; assay type: in vivo; conditions: 15 mg/kg i.p. 30 min before 50 mg/kg LPS
Method: 50 mg/kg of lipopolysaccharide (LPS) administration dose corresponds to the 'half lethal dose' that causes death of one half of the population within 24 hours. […] The animal experiment was conducted with six 8-week-old male C57BL6J mice per group. Each mouse was intraperitoneally administered 15 mg/kg of Compound 1 or pretreated with 100 µL of 10% DMSO (vehicle control). 30 minutes later, 50 mg/kg lipopolysaccharide was intraperitoneally injected into each mouse, and the viability was examined for 80 hours, and the results are shown in FIG. 9 and Table 2.

BALB/c male mice = experiment: Graft-versus-host disease (GvHD) animal model; assay type: in vivo; set-up: change in body weight: unit not given here; conditions: for body weight of the GvHD in vivo model: compared to control group
Method: 5-week-old BALB/c male mice were acclimatized for 1 week and irradiated with 800 cGy of total body irradiation. Then, 5 × 10^6 bone marrow cells derived from C57BL/6J and 1 × 10^7 spleen cells were intravenously injected to establish a GvHD in vivo model (positive control). A syngeneic control group was established in the same manner as above, but BALB/c-derived bone marrow cells were selected as the injected bone marrow cells. Compound 1 Daily was established by daily oral gavage of1 mg/kg of Compound 1 to the GvHD in vivo model. Compound 1 Initial only was established by orally administering 1 mg/kg of Compound 1 to the GvHD in vivo model only for 6 days after model induction. The therapeutic effect of Compound 1 was verified by measuring the change in body weight every 3 days for each control and experimental group established as above, and the results are shown in FIG. 11 and Table 4. On day 14, the production of CD4^+IFNg^+ T cells, which is a major factor inducing GvHD, was measured in the spleens isolated from the mice, and the results are shown in FIG. 12 and Table 5.

NCI-H295R cells = experiment: Cortisol production (ELISA), Cushing's syndrome cell model; assay type: cell-based, human; conditions: 0.1 µM, 0.5 µM, and 1 µM; 0.5 mM 8-Br-cAMP; concentration-dependent
Method: NCI-H295R cells (ATCC #CRL-2128), which are a human adrenocortical carcinoma cell line, were seeded at a density of 2.5 × 10^5 cells/well in a 24-well plate. The cells were cultured for 48 hours, and then they were pretreated with Compound 1 (0.1 µM, 0.5 µM, and 1 µM) for 12 hours. Furthermore, to increase cortisol synthesis, the cells were treated with 8-bromoadenosine […] monophosphate (8-Br-cAMP) at a concentration of 0.5 mM, and then re-treated with Compound 1, and allowed to react for 24 hours. After the reaction, the cell culture medium was collected, and the amount of cortisol produced in the cells was measured using an ELISA kit, and the results are shown in FIG. 14.

normal cells = experiment: Growth inhibition (Cell Counting Kit-8), normal cells; assay type: cell-based; conditions: 24 hours, 10% FBS; concentration of up to less than 40 µM
Method: (§1) In order to verify the growth inhibitory effect of Compound 1 on various normal and cancer cell lines, 25 types of cell lines listed in Table 7 below were tested. In detail, each cell was seeded at a density of 2 × 10^4 cells/well in a 96-well plate and cultured for 24 hours, and then the medium was replaced with a medium comprising 0.5% (for cancer cells) or 10% (for normal cells) FBS, and Compound 1 was treated at various concentrations. 24 hours later, 10 µL of Cell Counting Kit-8 (Dojindo Molecular Technologies) was added, and 1 hour later, absorbance at 480 nm was measured using a microplate reader (TECAN SPARK), and the results are shown in FIGS. 15 to 21.

bladder cancer cells = experiment: Growth inhibition (Cell Counting Kit-8), bladder cancer cells; assay type: cell-based; conditions: 24 hours, 0.5% FBS
Method: as §1

liver cancer cells = experiment: Growth inhibition (Cell Counting Kit-8), liver cancer cells; assay type: cell-based; conditions: 24 hours, 0.5% FBS
Method: as §1

[3] = qPCR, vs vehicle administration group

For `CC(C(=O)NNc1ccc(F)cc1)n1cc(-c2cc(F)cc3c2-c2ccccc2C3(O)C(F)(F)F)cn1` (centres unmarked) [Example 1, 2-(4-(2-fluoro-9-hydroxy-9-(trifluoromethyl)-9H-fluoren-4-yl)-1H-pyrazol-1-yl)-N'-(4-fluorophenyl)propanehydrazide], the “RNA expression of NGAL (kidney)” value (C57BL6J mice [1]) was “significantly reduced”, the “apoptosis of kidney tissue (TUNEL staining)” value (C57BL6J mice [1]) was “significant reduction” and the “renal tubular tissue damage (H&E staining)” value (C57BL6J mice [1]) was “significant reduction”. For the same compound, the serum creatinine (C57BL6J mice [1]) was “significantly reduced”, the “longitudinal contraction of colon” value (C57BL6J JmcSlc mice; 0.5 mg/kg and 1 mg/kg oral daily, vs vehicle, effect increased with dose) was “alleviated” and the “colonic epithelial cell recovery (H&E staining)” value (C57BL6J JmcSlc mice; 0.5 mg/kg oral daily, DSS) was “slight”. The “colonic epithelial cell recovery (H&E staining)” value (C57BL6J JmcSlc mice; 1 mg/kg oral daily, DSS) was “remarkable epithelial cell recovery”, the “tissue score (histological score)” value (C57BL6J JmcSlc mice; 1 mg/kg oral daily, DSS) was “lowest score” and the “mRNA expression of IFNγ (colon)” value (C57BL6J JmcSlc mice; [3]) was “significantly reduced”. The “mRNA expression of IL-4 (colon)” value (C57BL6J JmcSlc mice; [3]) was “increased”, the “mRNA expression of IL-6 (colon)” value (C57BL6J JmcSlc mice; [3]) was “significantly reduced” and the “mRNA expression of IL-12b (colon)” value (C57BL6J JmcSlc mice; [3]) was “significantly reduced”. The “mRNA expression of IL-17a (colon)” value (C57BL6J JmcSlc mice; [3]) was “significantly reduced”, the “mRNA expression of TNFα (colon)” value (C57BL6J JmcSlc mice; [3]) was “significantly reduced” and the “Viability (%)” value (C57BL6J mice [2]; Time 0 h) was 100%. The “Viability (%)” value (C57BL6J mice [2]; Time 20 h) was 100%, the “Viability (%)” value (C57BL6J mice [2]; Time 60 h) was 50% and the “Viability (%)” value (C57BL6J mice [2]; Time 70 h) was 50%. For the same compound, the “Viability (%)” value (C57BL6J mice [2]; Time 80 h) was 50%, the “change in body weight” value (BALB/c male mice; Daily oral gavage 1 mg/kg, D0) was 0 and the “change in body weight” value (BALB/c male mice; Daily oral gavage 1 mg/kg, D3) was -14.77. The “change in body weight” value (BALB/c male mice; Daily oral gavage 1 mg/kg, D6) was -22.95, the “change in body weight” value (BALB/c male mice; Daily oral gavage 1 mg/kg, D9) was -19.07 and the “change in body weight” value (BALB/c male mice; Daily oral gavage 1 mg/kg, D12) was -16.1959. For the same compound, the “body weight of the GvHD in vivo model” value (BALB/c male mice; Daily oral gavage 1 mg/kg) was “significantly recovered”, the “change in body weight” value (BALB/c male mice; Initial only: 1 mg/kg oral for 6 days after model induction, D0) was 0 and the “change in body weight” value (BALB/c male mice; Initial only: 1 mg/kg oral for 6 days after model induction, D3) was -11.15. For the same compound, the “change in body weight” value (BALB/c male mice; Initial only: 1 mg/kg oral for 6 days after model induction, D6) was -19.01, the “change in body weight” value (BALB/c male mice; Initial only: 1 mg/kg oral for 6 days after model induction, D9) was -14.6667 and the “change in body weight” value (BALB/c male mice; Initial only: 1 mg/kg oral for 6 days after model induction, D12) was -11.99. For the same compound, the “body weight of the GvHD in vivo model” value (BALB/c male mice; Initial only: 1 mg/kg oral for 6 days) was “significantly recovered”, the cortisol production (NCI-H295R cells) was “significantly inhibited” and the viability (normal cells) was at least 70%. For the same compound, the “concentration at which viability began to rapidly decrease to 70% or less” value (bladder cancer cells) was “less than 1.2 µM” and the “concentration at which viability began to rapidly decrease to 70% or less” value (liver cancer cells) was 10 µM.
